Assay results from patent US20250034089A1, “TETRAHYDROCARBAZOLE COMPOUND, AND PHARMACEUTICAL COMPOSITION AND USE THEREOF” (NAIN BIOTECH (HANGZHOU) CO., LTD., priority 2021, published 2025).

Legend:
[1] = system: HeLa cells; test: Tumor microspheres cultured in HeLa cells; assay type: cell-based, human; conditions: 10 μM, 48 hours
Protocol: • 1) Cell sources: cervical cancer cells HeLa and Caski, liver cancer cells Hep3B and Huh7 were all purchased from the Chinese Academy of Sciences cell bank (Shanghai). • 2) Tumor microsphere culture: The specific culture method for tumor microspheres can be found in the literature (Cheng J et al. Tryptophan derivatives regulate the transfer of Oct4 in stem-like cancer cells. Nat Commun. 2015, 6:7209). Each tumor cell was cultured separately in a medium containing 2% B27, 10 ng/ml BFGF, 5 ng/ml EGF, and 10 ng/ml LIF to form CSC rich tumor microspheres. • 3) Cell dosing treatment: HeLa cell lines and Huh7 cell lines were inoculated in a 6-well plate containing the aforementioned culture medium at a density of 200 cells per well, while Hep3B cell lines and Caski cell lines were inoculated in a 6-well plate containing the aforementioned culture medium at a density of 2000 cells per well. KZT-A5 or AH057 at concentrations of 1 μM or 10 μM was added, and the morphology of tumor microspheres was observed, photographed and recorded after 48 hours of treatment.

[2] = target: T1, OCT4 protein (Homo sapiens, UniProt Q01860); test: Inhibitory effect on OCT4 protein in HeLa cells (Western blot); assay type: cell-based; conditions: FIG. 2
T1 construct: HeLa cell line 3A11 with endogenous high expression of OCT4; endogenous in cells; host or cells: HeLa cell line 3A11
T1 sequence (Q01860 whole entry): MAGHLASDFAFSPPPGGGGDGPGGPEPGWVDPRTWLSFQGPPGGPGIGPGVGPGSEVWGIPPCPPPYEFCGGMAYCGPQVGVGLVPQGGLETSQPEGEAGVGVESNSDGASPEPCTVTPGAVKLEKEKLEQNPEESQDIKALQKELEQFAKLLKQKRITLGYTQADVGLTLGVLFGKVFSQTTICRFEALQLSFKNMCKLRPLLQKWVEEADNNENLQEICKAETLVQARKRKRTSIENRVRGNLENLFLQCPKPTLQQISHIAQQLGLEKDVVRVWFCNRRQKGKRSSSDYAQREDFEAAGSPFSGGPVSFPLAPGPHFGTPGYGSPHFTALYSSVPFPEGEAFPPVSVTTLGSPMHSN
Text: • 1) Cell source: HeLa cell line 3A11 with endogenous high expression of OCT4, constructed by the inventor's laboratory (Zhou Y et al. Endogenous authentic OCT4A proteins directly regulate FOS/AP-1 transcription in physiological cancer cells. Cell Death Dis. 2018, 9:585). • 2) Cell culture and passage: All of the above cells were adherently cultured in complete culture medium [to a 6-cm culture dish (#430166, Corning) or T75 culture bottle (#3276, Corning) containing DMEM high-sugar basal medium (#SH30243.01B, HyClone) was added a final concentration of 10% FBS (#1101-500, Shanghai Pufei) and Penicillin-Streptomycin dual antibody (#SV30010, HyClone)]. The culture dish (bottle) was placed in a cell culture incubator (#3111, Thermo Fisher Scientific) at 37° C., 5% CO2, and saturated humidity. […] The supernatant was discarded, and the cell clumps were resuspended with fresh complete culture medium, blown into single cells again, passaged and inoculated into new culture dishes (bottles) in a ratio of 1:3-1:6, the complete culture medium was supplemented, and then placed in a cell culture incubator at 37° C. and 5% CO2 for culture. • 3) Cell dosing treatment: The above-mentioned HeLa cells were digested, counted, and inoculated into each well of the 96 well cell culture plate (#3988, Corning) at a density of 5000 cells/200 μl culture medium. […]

## COc1cc(/C=C2\CCc3c([nH]c4ccc(C)cc34)C2=O)ccc1O [KZT-A5]
[1]
  inhibitory effect on tumor microspheres compared with AH057: more significant than that of the control compound AH057
[2]; HeLa 3A11, 10 μM vs 100 μM
  dose dependence of inhibition of OCT4 protein expression: dose-dependently inhibit the expression of OCT4 protein
[2]; HeLa cell line 3A11, 48-72 hours
  inhibitory effect on OCT4 protein (downregulation): most significant effect in downregulating OCT4 protein
